Results as given in ChEMBL document CHEMBL3046330, “Synthesis and biological activity of hydrazidehydrazones and their corresponding 3-acetyl-2,5-disubstituted-2,3-dihydro-1,3,4-oxadiazoles” (Med Chem Res, 2012).
Converted amounts (≈) assume the structure as drawn. The source made the active and inactive calls. The rule behind the calls is not given here.

How the values were obtained:
[1] = tested on: HL-60; assay: Cytotoxicity against Homo sapiens (human) HL60 cells; format: cell-based
[2] = target: Transcription factor Sp1 (Homo sapiens, UniProt P08047); assay: Inhibition of Sp1 (unknown origin) up to 25 ug/ml by luciferase reporter gene assay
[3] = tested on: Vero; assay: Cytotoxicity against Chlorocebus aethiops (African green monkey) Vero cells assessed as cell viability up to 25 ug/ml after 48 hr by neutral red assay; format: cell-based; settings: chlorocebus sabaeus
[4] = tested on: Candida parapsilosis; assay: Antifungal activity against Candida parapsilosis NRRL Y-12696 after 24 hr by NCCLS broth microdilution method; format: functional; settings: Lodderomyces parapsilosis, NRRL Y-12696, 24 h
[5] = target: T1, Nitric oxide synthase, inducible (Mus musculus, UniProt P29477); assay: Inhibition of iNOS in Mus musculus (mouse) RAW264.7 cells assessed as inhibition of LPS-induced nitrite production incubated for 30 min prior to LPS challenge measured after 24 hr by Griess assay; format: cell-based
T1 sequence (P29477 whole entry): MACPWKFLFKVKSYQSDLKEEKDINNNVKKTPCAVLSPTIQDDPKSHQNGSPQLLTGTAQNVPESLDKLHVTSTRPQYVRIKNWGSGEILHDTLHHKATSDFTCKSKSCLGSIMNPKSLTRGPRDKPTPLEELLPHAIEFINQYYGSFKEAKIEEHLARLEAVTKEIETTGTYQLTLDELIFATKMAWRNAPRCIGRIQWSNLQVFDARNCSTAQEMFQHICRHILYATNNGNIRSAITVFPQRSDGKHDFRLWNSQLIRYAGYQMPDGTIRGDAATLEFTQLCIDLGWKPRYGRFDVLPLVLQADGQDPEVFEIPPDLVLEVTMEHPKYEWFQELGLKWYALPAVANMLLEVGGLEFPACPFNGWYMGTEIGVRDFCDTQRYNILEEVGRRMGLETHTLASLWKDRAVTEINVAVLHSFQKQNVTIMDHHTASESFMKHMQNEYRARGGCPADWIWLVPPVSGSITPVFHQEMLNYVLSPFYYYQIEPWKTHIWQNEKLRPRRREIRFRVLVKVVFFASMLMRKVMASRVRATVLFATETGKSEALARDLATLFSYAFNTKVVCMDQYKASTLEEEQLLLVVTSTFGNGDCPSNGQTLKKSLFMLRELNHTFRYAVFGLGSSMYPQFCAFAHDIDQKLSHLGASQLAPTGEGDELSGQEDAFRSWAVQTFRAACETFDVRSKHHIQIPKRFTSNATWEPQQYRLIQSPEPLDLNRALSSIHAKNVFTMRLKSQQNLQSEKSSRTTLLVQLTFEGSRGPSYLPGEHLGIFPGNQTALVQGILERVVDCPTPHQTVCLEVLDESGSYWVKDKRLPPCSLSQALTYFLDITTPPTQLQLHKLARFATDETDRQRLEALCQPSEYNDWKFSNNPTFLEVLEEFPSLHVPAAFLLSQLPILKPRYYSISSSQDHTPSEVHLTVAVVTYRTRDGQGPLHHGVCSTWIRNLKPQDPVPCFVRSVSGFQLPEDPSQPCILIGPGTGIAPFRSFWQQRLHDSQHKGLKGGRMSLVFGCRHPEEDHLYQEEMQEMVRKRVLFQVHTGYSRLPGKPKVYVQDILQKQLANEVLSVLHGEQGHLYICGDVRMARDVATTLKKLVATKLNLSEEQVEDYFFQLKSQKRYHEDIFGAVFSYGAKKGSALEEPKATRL

[6] = tested on: RAW264.7; assay: Cytotoxicity against Mus musculus (mouse) RAW264.7 cells up to 25 ug/ml; format: cell-based
[7] = tested on: Nakaseomyces glabratus; assay: Antifungal activity against Candida glabrata clinical isolate after 24 hr by NCCLS broth microdilution method; format: functional
[8] = tested on: KB; assay: Cytotoxicity against Homo sapiens (human) KB cells assessed as cell viability up to 25 ug/ml after 48 hr by neutral red assay; format: functional, cell-based
[9] = tested on: SK-MEL; assay: Cytotoxicity against Homo sapiens (human) SK-MEL cells assessed as cell viability up to 25 ug/ml after 48 hr by neutral red assay; format: functional, cell-based
[10] = tested on: Botrytis cinerea; assay: Antifungal activity against Botryotinia fuckeliana at 0.3 to 30 uM after 48 to 72 hr by broth microdilution method; format: functional, organism-based
[11] = tested on: Candida albicans; assay: Antifungal activity against Candida albicans clinical isolate after 24 hr by NCCLS broth microdilution method; format: functional
[12] = tested on: Colletotrichum fragariae; assay: Antifungal activity against Colletotrichum fragariae at 0.3 to 30 uM after 48 to 72 hr by broth microdilution method; format: functional, organism-based
[13] = tested on: Candida tropicalis; assay: Antifungal activity against Candida tropicalis NRRL Y-12968 at 2000 ug/ml by agar diffusion method; format: functional; settings: read-out: IZ
[14] = tested on: Cyberlindnera jadinii; assay: Antifungal activity against Cyberlindnera jadinii NRRL Y-900 after 24 hr by NCCLS broth microdilution method; format: functional; settings: Williopsis jadinii, NRRL Y-900, 24 h
[15] = tested on: SK-OV-3; assay: Cytotoxicity against Homo sapiens (human) SKOV3 cells assessed as cell viability up to 25 ug/ml after 48 hr by neutral red assay; format: functional, cell-based
[16] = Cytotoxicity against Sus scrofa (pig) LLC-PK11 cells assessed as cell viability up to 25 ug/ml after 48 hr by neutral red assay; format: cell-based; settings: llc-pk11, 48 h
[17] = tested on: Candida tropicalis; assay: Antifungal activity against Candida tropicalis NRRL Y-12968 after 24 hr by NCCLS broth microdilution method; format: functional; settings: NRRL Y-12968, 24 h
[18] = tested on: Pichia kudriavzevii; assay: Antifungal activity against Pichia kudriavzevii NRRL Y-7179 after 24 hr by NCCLS broth microdilution method; format: functional; settings: NRRL Y-7179, 24 h
[19] = tested on: Candida albicans; assay: Antifungal activity against Candida albicans ATCC 90028 after 24 hr by NCCLS broth microdilution method; format: functional; settings: ATCC 90028, 24 h
[20] = tested on: Candida albicans; assay: Antifungal activity against Candida albicans clinical isolate at 2000 ug/ml by agar diffusion method; format: functional; settings: read-out: IZ
[21] = tested on: BT-549; assay: Cytotoxicity against Homo sapiens (human) BT549 cells assessed as cell viability up to 25 ug/ml after 48 hr by neutral red assay; format: functional, cell-based
[22] = tested on: SW1353; assay: Inhibition of PMA-induced NFkappaB activity in Homo sapiens (human) SW1353 cells up to 25 ug/ml incubated for 30 min followed by PMA induction for 8 hr by luciferase reporter gene assay; format: cell-based
[23] = tested on: HL-60; assay: Antioxidant activity in PMA-stimulated Homo sapiens (human) HL60 cells assessed as inhibition of intracellular ROS generation up to 25 ug/ml incubated for 30 min prior to PMA stimulation measured after 30 min by DCFH-DA assay relative to vehicle-treated control; format: functional, cell-based
[24] = tested on: Candida albicans; assay: Antifungal activity against Candida albicans NRRL Y-12983 after 24 hr by NCCLS broth microdilution method; format: functional; settings: NRRL Y-12983, 24 h
[25] = tested on: HL-60; assay: Cytotoxicity against Homo sapiens (human) HL60 cells up to 25 ug/ml; format: cell-based
[26] = target: T2, Nitric oxide synthase, inducible (Mus musculus) (UniProt P29477); assay: Inhibition of iNOS in Mus musculus (mouse) RAW264.7 cells assessed as inhibition of LPS-induced nitrite production up to 25 ug/ml incubated for 30 min prior to LPS challenge measured after 24 hr by Griess assay relative to vehicle-treated control; format: cell-based
T2 sequence (whole entry): T1 sequence (P29477 whole entry)

Sequence of Transcription factor Sp1 (P08047 whole entry): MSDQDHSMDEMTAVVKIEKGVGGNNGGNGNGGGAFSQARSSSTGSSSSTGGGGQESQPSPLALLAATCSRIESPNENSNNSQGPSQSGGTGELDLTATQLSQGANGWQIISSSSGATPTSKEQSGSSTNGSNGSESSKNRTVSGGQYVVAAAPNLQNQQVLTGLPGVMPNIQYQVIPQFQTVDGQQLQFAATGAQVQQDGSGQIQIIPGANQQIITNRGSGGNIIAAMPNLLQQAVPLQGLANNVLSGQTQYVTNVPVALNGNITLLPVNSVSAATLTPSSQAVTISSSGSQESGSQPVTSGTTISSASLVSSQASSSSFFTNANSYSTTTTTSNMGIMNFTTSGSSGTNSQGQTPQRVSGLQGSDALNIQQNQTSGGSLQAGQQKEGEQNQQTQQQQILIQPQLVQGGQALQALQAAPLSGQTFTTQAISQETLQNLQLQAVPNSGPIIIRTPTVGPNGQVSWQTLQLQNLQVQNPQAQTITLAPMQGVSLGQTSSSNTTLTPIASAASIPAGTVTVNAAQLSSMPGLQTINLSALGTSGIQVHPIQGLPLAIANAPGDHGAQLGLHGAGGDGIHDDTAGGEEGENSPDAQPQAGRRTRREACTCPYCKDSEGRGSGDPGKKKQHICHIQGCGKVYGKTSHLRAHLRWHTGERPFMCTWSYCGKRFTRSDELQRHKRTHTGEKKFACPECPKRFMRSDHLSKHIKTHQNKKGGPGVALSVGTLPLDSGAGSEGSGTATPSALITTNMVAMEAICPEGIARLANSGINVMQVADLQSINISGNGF

Compound | inhibition (INH) [2] | MIC [4] | MIC [7] | MIC [11] | MIC [14] | MIC [17] | MIC [18] | MIC [19] | MIC [24] | Activity [3] | Activity [6] | Activity [8] | Activity [9] | zone of inhibition at 2000 µg/mL [13] | Activity [15] | Activity [16] | zone of inhibition at 2000 µg/mL [20] | Activity [21] | inhibition [22] | inhibition [23] | other results
COc1cccc2c1C(=O)c1c(O)c3c(c(O)c1C2=O)C[C@@](O)(C(=O)CO)C[C@@H]3O[C@H]1C[C@H](N)[C@H](O)[C@H](C)O1 [DOXORUBICIN] |  |  |  |  |  |  |  |  |  |  |  |  |  |  |  |  |  |  |  |  | IC50 [1]: 0.16 µg/mL (≈ 0.294 µM)
CC(=O)N1CCN(c2ccc(OCC3COC(Cn4ccnc4)(c4ccc(Cl)cc4Cl)O3)cc2)CC1 (configuration not stated) [KETOCONAZOLE] |  | 125 µg/mL (≈ 235 µM) | 31 µg/mL (≈ 58.3 µM) | 16 µg/mL (≈ 30.1 µM) | 62 µg/mL (≈ 117 µM) | 62 µg/mL (≈ 117 µM) | 62 µg/mL (≈ 117 µM) | 62 µg/mL (≈ 117 µM) | 125 µg/mL (≈ 235 µM) |  |  |  |  |  |  |  |  |  |  |  | 

The next lines start with results.

inhibition (INH) [2] | MIC [4] | MIC [7] | MIC [11] | MIC [14] | MIC [17] | MIC [18] | MIC [19] | MIC [24] | Compound | Activity [3] | Activity [6] | Activity [8] | Activity [9] | zone of inhibition at 2000 µg/mL [13] | Activity [15] | Activity [16] | zone of inhibition at 2000 µg/mL [20] | Activity [21] | inhibition [22] | inhibition [23] | other results
Not Active | 1000 µg/mL (≈ 3520 µM) | 1000 µg/mL (≈ 3520 µM) | 500 µg/mL (≈ 1760 µM) | 1000 µg/mL (≈ 3520 µM) | 1000 µg/mL (≈ 3520 µM) | 1000 µg/mL (≈ 3520 µM) | 1000 µg/mL (≈ 3520 µM) | 500 µg/mL (≈ 1760 µM) | CC(=O)N1N=C(c2ccc(F)cc2)OC1c1ccccc1 (configuration not stated) | Not Active | Non-toxic | inactive | inactive | 9 mm | inactive | Not Active | 9 mm | inactive | inactive | inactive | IC50 [5]: > 87.9 µM; Activity [10]: inactive; Activity [12]: inactive; IC50 [1]: 31.3 µg/mL (≈ 110 µM)
Not Active | 500 µg/mL (≈ 1610 µM) | 500 µg/mL (≈ 1610 µM) | 500 µg/mL (≈ 1610 µM) | 500 µg/mL (≈ 1610 µM) | 500 µg/mL (≈ 1610 µM) | 500 µg/mL (≈ 1610 µM) | 500 µg/mL (≈ 1610 µM) | 500 µg/mL (≈ 1610 µM) | CN(C)c1ccc(/C=C/C=N/NC(=O)c2ccc(F)cc2)cc1 | Not Active | Non-toxic | inactive | inactive | 9 mm | inactive | Not Active | 9 mm | inactive | inactive | inactive | Activity [25]: Non-toxic; inhibition [26]: inactive
Not Active | 500 µg/mL (≈ 1590 µM) | 250 µg/mL (≈ 795 µM) | 250 µg/mL (≈ 795 µM) | 250 µg/mL (≈ 795 µM) | 500 µg/mL (≈ 1590 µM) | 500 µg/mL (≈ 1590 µM) | 500 µg/mL (≈ 1590 µM) | 500 µg/mL (≈ 1590 µM) | COc1ccc(C2OC(c3ccc(F)cc3)=NN2C(C)=O)cc1 (configuration not stated) | Not Active | Non-toxic | inactive | inactive | 9 mm | inactive | Not Active | 9 mm | inactive | inactive | inactive | Activity [25]: Non-toxic; inhibition [26]: inactive
